Measured values reported in patent US11865098B1, “Methods and compositions for treating excessive sleepiness” (Axsome Malta Ltd., priority 2017, dated 2024).

Tested on: adult patients with OSA and ES
Assay: MWT, 12-week placebo-controlled parallel study in OSA
Type: in vivo, human
Settings: mITT
Method: The MWT is an objective test used to measure how alert a subject is during the day. The test consists of four sleep trials with two hours in between the trials. The first trial is performed 1.5-3 hours after the subject's normal wake-up time. Sensors are placed on the head, face, and chin to detect when the subject is asleep and awake during the test. The subject sits quietly in bed with his or her back and head supported by a pillow and is asked to sit still and look straight ahead while trying to stay awake as long as possible. Each trial lasts 40 minutes or until the subject is asleep for 90 seconds. Between trials, the subject stays out of bed and occupies himself or herself to remain awake. Falling asleep in an average of less than eight minutes is considered abnormal. About 40-60% of subjects with normal sleep stay awake for the entire 40 minutes of all four trials.
The study was a 12-week, double-blind, placebo-controlled, parallel design study as described in greater detail in Example 1 (Schweitzer et al., Sleep 40(Abstract Supplement):A237. Abstract 0641 (2017)). Patients were randomized (1:1:2:2:2) to APC 37.5, 75, 150, 300 mg, or placebo for 12 weeks, and were stratified by adherence or non-adherence with primary OSA therapy (adherent definition was use for ≥4 hours per night on >70% of nights). Two patient-reported measures were included as secondary efficacy outcomes to evaluate the effects of APC on functional status and work productivity and activity impairment at baseline and weeks 1, 4, 8, and 12. The Functional Outcomes of Sleep questionnaire short version (FOSQ-10) (Chasens et al., Sleep 32(7):915 (2009)) evaluated the effects of ES on functioning. The Work Productivity and Activity Impairment questionnaire for Specific Health Problems (WPAI:SHP) (Reilly et al., Pharmacoeconomics 4(5):353 (1993); Reilly, Work Productivity and Activity Impairment Questionnaire: Specific Health Problem V2.0 (WPAI: SHP). www.reillyassociates.net/WPAI_SHP) evaluated work productivity impairment among employed patients and overall activity impairment outside of work among all patients for the past 7 days. Four outcomes are available from the WPAI:SHP: Absenteeism (percent work time missed due to health); Presenteeism (percent impairment while working due to health); Percent overall work impairment (calculated from absenteeism and presenteeism); and Percent activity impairment due to health. The FOSQ-10 was evaluated as change over time compared with placebo (least squares (LS) mean); the 4 WPAI outcomes were evaluated at week 12 compared to placebo. Efficacy analyses were based on the modified intent-to-treat population (mITT) and there was no multiplicity adjustment for the FOSQ-10 or WPAI:SHP. Safety and tolerability were assessed based on treatment-emergent adverse events (TEAEs), vital signs, electrocardiogram test, physical exams, Columbia-Suicide Severity Rating Scale, and laboratory tests in the safety population.
This was a 12-week, double-blind, placebo-controlled, parallel-design study. Patients were randomized (1:1:2:2:2) to APC 37.5 mg, 75 mg, 150 mg, or 300 mg, or placebo for 12 weeks, and were stratified by adherence or nonadherence with primary OSA therapy.

[1] = Week 12, Combined JZP-110 doses

## NC(=O)OC[C@H](N)Cc1ccccc1 [JZP-110, (R)-2-amino-3-phenylpropyl carbamate]
Week 4, 150 mg
  MWT mean sleep latency increase from baseline >=10 minutes, subjects: 54 (50.0) n (%)
  MWT mean sleep latency increase from baseline >=15 minutes, subjects: 40 (37.0) n (%)
  MWT mean sleep latency increase from baseline >=20 minutes, subjects: 26 (24.1) n (%)
  MWT mean sleep latency increase from baseline >=25 minutes, subjects: 13 (12.0) n (%)
  MWT mean sleep latency increase from baseline >=30 minutes, subjects: 3 (2.8) n (%)
Week 4, 300 mg
  MWT mean sleep latency increase from baseline >=5 minutes, subjects: 79 (78.2) n (%)
  MWT mean sleep latency increase from baseline >=10 minutes, subjects: 63 (62.4) n (%)
  MWT mean sleep latency increase from baseline >=15 minutes, subjects: 47 (46.5) n (%)
  MWT mean sleep latency increase from baseline >=20 minutes, subjects: 32 (31.7) n (%)
  MWT mean sleep latency increase from baseline >=25 minutes, subjects: 15 (14.9) n (%)
  MWT mean sleep latency increase from baseline >=30 minutes, subjects: 5 (5.0) n (%)
Week 4, Combined JZP-110 doses
  MWT mean sleep latency increase from baseline >=5 minutes, subjects: 217 (69.1) n (%)
  MWT mean sleep latency increase from baseline >=10 minutes, subjects: 158 (50.3) n (%)
  MWT mean sleep latency increase from baseline >=15 minutes, subjects: 105 (33.4) n (%)
  MWT mean sleep latency increase from baseline >=20 minutes, subjects: 67 (21.3) n (%)
  MWT mean sleep latency increase from baseline >=25 minutes, subjects: 30 (9.6) n (%)
  MWT mean sleep latency increase from baseline >=30 minutes, subjects: 9 (2.9) n (%)
Week 12, 37.5 mg
  MWT mean sleep latency increase from baseline >=5 minutes, subjects: 18 (36.7) n (%)
  MWT mean sleep latency increase from baseline >=10 minutes, subjects: 16 (32.7) n (%)
  MWT mean sleep latency increase from baseline >=15 minutes, subjects: 10 (20.4) n (%)
  MWT mean sleep latency increase from baseline >=20 minutes, subjects: 5 (10.2) n (%)
  MWT mean sleep latency increase from baseline >=25 minutes, subjects: 0 n (%)
  MWT mean sleep latency increase from baseline >=30 minutes, subjects: 0 n (%)
Week 12, 75 mg
  MWT mean sleep latency increase from baseline >=5 minutes, subjects: 35 (64.8) n (%)
  MWT mean sleep latency increase from baseline >=10 minutes, subjects: 25 (46.3) n (%)
  MWT mean sleep latency increase from baseline >=15 minutes, subjects: 15 (27.8) n (%)
  MWT mean sleep latency increase from baseline >=20 minutes, subjects: 7 (13.0) n (%)
  MWT mean sleep latency increase from baseline >=25 minutes, subjects: 3 (5.6) n (%)
  MWT mean sleep latency increase from baseline >=30 minutes, subjects: 1 (1.9) n (%)
Week 12, 150 mg
  MWT mean sleep latency increase from baseline >=5 minutes, subjects: 71 (67.6) n (%)
  MWT mean sleep latency increase from baseline >=10 minutes, subjects: 53 (50.5) n (%)
  MWT mean sleep latency increase from baseline >=15 minutes, subjects: 39 (37.1) n (%)
  MWT mean sleep latency increase from baseline >=20 minutes, subjects: 26 (24.8) n (%)
  MWT mean sleep latency increase from baseline >=25 minutes, subjects: 13 (12.4) n (%)
  MWT mean sleep latency increase from baseline >=30 minutes, subjects: 0 n (%)
Week 12, 300 mg
  MWT mean sleep latency increase from baseline >=5 minutes, subjects: 69 (75.0) n (%)
  MWT mean sleep latency increase from baseline >=10 minutes, subjects: 60 (65.2) n (%)
  MWT mean sleep latency increase from baseline >=15 minutes, subjects: 40 (43.5) n (%)
  MWT mean sleep latency increase from baseline >=20 minutes, subjects: 26 (28.3) n (%)
  MWT mean sleep latency increase from baseline >=25 minutes, subjects: 12 (13.0) n (%)
  MWT mean sleep latency increase from baseline >=30 minutes, subjects: 6 (6.5) n (%)
[1]
  MWT mean sleep latency increase from baseline >=5 minutes, subjects: 193 (64.3) n (%)
  MWT mean sleep latency increase from baseline >=10 minutes, subjects: 154 (51.3) n (%)
  MWT mean sleep latency increase from baseline >=15 minutes, subjects: 104 (34.7) n (%)
  MWT mean sleep latency increase from baseline >=20 minutes, subjects: 64 (21.3) n (%)
  MWT mean sleep latency increase from baseline >=25 minutes, subjects: 28 (9.3) n (%)
  MWT mean sleep latency increase from baseline >=30 minutes, subjects: 7 (2.3) n (%)
